Laboratory results taken from patent publication US12077503B2, “Substituted cyclic amides and their use as herbicides” (FMC CORPORATION, priority 2015, dated 2024).

Columns and labels:
Assay type in all cases: in vivo
[1] = system: ryegrass, Italian (Italian ryegrass, Lolium multiflorum); experiment: Test A preemergence; settings: Lolium multiflorum, pre-emergence, 240 h, Preemergence
Procedure, shortened: (§1)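 Greenhouse, ~10 d after spray; visual injury vs untreated controls, 0 = no effect, 100 = complete control. Preemergence: directed soil spray over planted seeds. Postemergence: plants 2–10 cm, 1–2 leaf stage. Loam/sand blend. Compound in non-phytotoxic solvent with surfactant.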

[2] = system: pigweed (Amaranthus retroflexus); experiment: Test A preemergence; settings: Amaranthus retroflexus, pre-emergence, 240 h, Preemergence
Kochia (Kochia scoparia) [3] = experiment: Test A preemergence; settings: Bassia scoparia, pre-emergence, 240 h, Preemergence
Procedure, shortened: as §1

[4] = system: barnyardgrass (Echinochloa crus-galli); experiment: Test A preemergence; settings: Echinochloa crus-galli, pre-emergence, 240 h, Preemergence
Procedure, shortened: as §1

[5] = system: giant foxtail (Setaria faberii); experiment: Test A preemergence; settings: Setaria faberi, pre-emergence, 240 h, Preemergence
Procedure, shortened: as §1

[6] = system: ragweed (common ragweed, Ambrosia elatior); experiment: Test A preemergence; settings: Ambrosia artemisiifolia, pre-emergence, 240 h, Preemergence
Procedure, shortened: as §1

rice (Oryra sativa) = experiment: Test B flooded paddy test; settings: Oryza sativa, 250 g ai/ha, Flood; 0 to 100 scale where 0 is no effect and 100 is complete control; read-out: Rice plant response rating
Procedure, shortened: (§2)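 Flooding to 3 cm over soil accompanied treatment, which consisted of adding compound to the standing water around 2-leaf plants; depth was then maintained. Visual assessment versus controls followed at 13 to 15 d (scale 0–100, 0 meaning no effect).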

[7] = system: sedge, umbrella (small-flower umbrella sedge, Cyperus difformis); experiment: Test B flooded paddy test; settings: Cyperus difformis, 250 g ai/ha, Flood; 0 to 100 scale where 0 is no effect and 100 is complete control; read-out: Sedge, Umbrella plant response rating
Procedure, shortened: as §2

[8] = system: barnyardgrass (Echinochloa crus-galli); experiment: Test B flooded paddy test; settings: Echinochloa crus-galli, 250 g ai/ha, Flood; 0 to 100 scale where 0 is no effect and 100 is complete control; read-out: Barnyardgrass plant response rating
Procedure, shortened: as §2

[9] = system: ducksalad (Heteranthera limosa); experiment: Test B flooded paddy test; settings: Heteranthera limosa, 250 g ai/ha, Flood; 0 to 100 scale where 0 is no effect and 100 is complete control; read-out: Ducksalad plant response rating
Procedure, shortened: as §2

[10] = system: ryegrass, Italian (Italian ryegrass, Lolium multiflorum); experiment: Test A postemergence; settings: Lolium multiflorum, post-emergence, 240 h, Postemergence, read-out: Plant response rating, Ryegrass, Italian
Procedure, shortened: as §1

[11] = system: pigweed (Amaranthus retroflexus); experiment: Test A postemergence; settings: Amaranthus retroflexus, post-emergence, 240 h, Postemergence, read-out: Plant response rating, Pigweed
Procedure, shortened: as §1

Kochia (Kochia scoparia) [12] = experiment: Test A postemergence; settings: Bassia scoparia, post-emergence, 240 h, Postemergence, read-out: Plant response rating, Kochia
Procedure, shortened: as §1

[13] = system: wheat (Triticum aestivum); experiment: Test A postemergence; settings: Triticum aestivum, post-emergence, 240 h, Postemergence, read-out: Plant response rating, Wheat
Procedure, shortened: as §1

corn (Zea mays) = experiment: Test A postemergence; settings: Zea mays, post-emergence, 240 h, Postemergence
Procedure, shortened: as §1

[14] = system: barnyardgrass (Echinochloa crus-galli); experiment: Test A postemergence; settings: Echinochloa crus-galli, post-emergence, 240 h, Postemergence, read-out: Plant response rating, Barnyardgrass
Procedure, shortened: as §1

[15] = system: giant foxtail (Setaria faberii); experiment: Test A postemergence; settings: Setaria faberi, post-emergence, 240 h, Postemergence, read-out: Plant response rating, Foxtail, Giant
Procedure, shortened: as §1

[16] = system: Galium (catchweed bedstraw, Galium aparine); experiment: Test A postemergence; settings: Galium, post-emergence, 240 h, Postemergence, read-out: Plant response rating, Galium
Procedure, shortened: as §1

[17] = system: blackgrass (Alopecurus myosuroides); experiment: Test A postemergence; settings: Alopecurus myosuroides, post-emergence, 240 h, Postemergence, read-out: Plant response rating, Blackgrass
Procedure, shortened: as §1

[18] = system: ragweed (common ragweed, Ambrosia elatior); experiment: Test A postemergence; settings: Ambrosia artemisiifolia, post-emergence, 240 h, Postemergence, read-out: Plant response rating, Ragweed
Procedure, shortened: as §1

[19] = 125 g ai/ha, visual injury after approximately 10 d, 0 to 100 scale where 0 is no effect and 100 is complete control
[20] = 31 g ai/ha, visual injury after approx. 10 d, 0 to 100 scale, 0 no effect, 100 complete control

O=C(Nc1cccc(F)c1F)[C@H]1C(=O)N(O)CC[C@@H]1c1ccccc1 [Compound 1007]
0%: pest or weed control at 31 g/ha ([1]; 31 g ai/ha, 0 to 100 scale where 0 is no effect and 100 is complete control, read-out: Ryegrass, Italian plant response rating) | pest or weed control at 125 g/ha ([1]; 125 g ai/ha, visual injury rating after approximately 10 d, read-out: Ryegrass, Italian plant response rating (0 to 100 scale, 0 is no effect, 100 is complete control)) | pest or weed control at 31 g/ha ([2]; 31 g ai/ha, 0 to 100 scale where 0 is no effect and 100 is complete control, read-out: Pigweed plant response rating) | pest or weed control at 125 g/ha ([2]; 125 g ai/ha, visual injury rating after approximately 10 d, read-out: Pigweed plant response rating (0 to 100 scale, 0 is no effect, 100 is complete control)) | pest or weed control at 31 g/ha (Kochia (Kochia scoparia) [3]; 31 g ai/ha, 0 to 100 scale where 0 is no effect and 100 is complete control, read-out: Kochia plant response rating) | pest or weed control at 125 g/ha (Kochia (Kochia scoparia) [3]; 125 g ai/ha, visual injury rating after approximately 10 d, read-out: Kochia plant response rating (0 to 100 scale, 0 is no effect, 100 is complete control)) | pest or weed control at 125 g/ha ([4]; 125 g ai/ha, visual injury rating after approximately 10 d, read-out: Barnyardgrass plant response rating (0 to 100 scale, 0 is no effect, 100 is complete control)) | pest or weed control at 31 g/ha ([4]; 31 g ai/ha, 0 to 100 scale (0 no effect, 100 complete control), read-out: Plant response rating, Barnyardgrass) | pest or weed control at 125 g/ha ([5]; 125 g ai/ha, visual injury rating after approximately 10 d, read-out: Foxtail, Giant plant response rating (0 to 100 scale, 0 is no effect, 100 is complete control)) | pest or weed control at 31 g/ha ([5]; 31 g ai/ha, 0 to 100 scale (0 no effect, 100 complete control), read-out: Plant response rating, Foxtail, Giant) | pest or weed control at 31 g/ha ([6]; 31 g ai/ha, 0 to 100 scale where 0 is no effect and 100 is complete control, read-out: Ragweed plant response rating) | pest or weed control at 125 g/ha ([6]; 125 g ai/ha, visual injury rating after approximately 10 d, read-out: Ragweed plant response rating (0 to 100 scale, 0 is no effect, 100 is complete control)) | pest or weed control at 250 g/ha (rice (Oryra sativa)) | pest or weed control at 250 g/ha [7] | pest or weed control at 250 g/ha [8] | pest or weed control at 250 g/ha [9] | pest or weed control at 125 g/ha [10, 19] | pest or weed control at 31 g/ha [10, 20] | pest or weed control at 125 g/ha [11, 19] | pest or weed control at 31 g/ha [11, 20] | pest or weed control at 125 g/ha (Kochia (Kochia scoparia) [12]; [19]) | pest or weed control at 31 g/ha (Kochia (Kochia scoparia) [12]; [20]) | plant injury at 125 g/ha [13, 19] | plant injury at 31 g/ha [13, 20] | Corn plant response rating (crop injury, 0 = no effect, 100 = complete kill) at 125 g/ha (corn (Zea mays); [19]) | Corn plant response rating (crop injury, 0 = no effect, 100 = complete kill) at 31 g/ha (corn (Zea mays); [20]) | pest or weed control at 125 g/ha [14, 19] | pest or weed control at 31 g/ha [14, 20] | pest or weed control at 125 g/ha [15, 19] | pest or weed control at 31 g/ha [15, 20] | pest or weed control at 125 g/ha [16, 19] | pest or weed control at 31 g/ha [16, 20] | pest or weed control at 125 g/ha [17, 19] | pest or weed control at 31 g/ha [17, 20] | pest or weed control at 125 g/ha [18, 19] | pest or weed control at 31 g/ha [18, 20]
